Experimental data published in patent publication US20220226480A1, “LIPID CONJUGATE PREPARED FROM SCAFFOLD MOIETY” (Integrated Nanotherapeutics Inc., priority 2019, published 2022).

Legend:
[1] = Particle size and polydispersity of LNP containing pro-drug (dynamic light scattering); assay type: physicochemical; design: Size of LNP: unit not given here; conditions: for Particle Diameter (nm) / Polydispersity index (PDI): LNP containing 10 mol % conjugate, primary PC-lipid DMPC
Method: (§1) LNPs were prepared by dissolving 1,2-Distearoyl-sn-glycero-3-phosphocholine (DSPC) or 1,2-dimyristoyl-sn-glycero-3-phosphocholine (DMPC), cholesterol and 1,2-Distearoyl-sn-glycero-3-phosphoethanolamine-Poly(ethylene glycol) (PEG-DSPE) in ethanol. DSPC, DMPC and PEG-DSPE were purchased from Avanti Polar Lipids (Alabaster, Ala.), and cholesterol was obtained from Sigma (St Louis, Mo.).
(§2) Drug-lipid-conjugates INT-D034, INT-D035, INT-D045, INT-D046, INT-D047, INT-D048, INT-D049, INT-D050, INT-D051, INT-D053, INT-D060, INT-D061, INT-D062, INT-D063, INT-D083, INT-D085, INT-D086, INT-D088 and INT-D089 (see FIG. 3 and Example 7 for structures) were dissolved in isopropanol or THF. LNP were prepared by rapidly mixing DSPC or DMPC, cholesterol, drug-lipid conjugate, and PEG-DSPE (in molar ratio of 49/40/10/1) with phosphate-buffered saline (PBS) using a cross-junction mixer. Formulations were dialyzed against PBS to remove residual ethanol. In formulation$ with more than 10 mol % drug-lipid conjugates, the amount of phospholipid or cholesterol was reduced accordingly.
(§3) The physiochemical properties of the LNPs prepared as described above were subsequently characterized. Particle size was determined by dynamic light scattering using a Malvern Zetasizer Nano ZS (Malvern, UK) following buffer exchange into phosphate-buffered saline. Number-weighted size and distribution date was used. Lipid concentrations were determined by measuring total cholesterol using the Cholesterol E enzymatic assay kit from Wako Chemicals USA (Richmond, Va.). The morphology of LNP formulations containing LD-DEX was analyzed by cryogenic-transmission electron microscopy (cryoTEM).

[2] = Encapsulation efficiency / incorporation of pro-drug in LNP; assay type: physicochemical; conditions: for Encapsulation Efficiency (%): LNP containing 10 mol % conjugate; for % Entrapment: LNP formulations containing pro-drugs (10 mol %, FIG. 6A)
Method: as §1, §2, §3

[3] = LNP formulations containing pro-drugs (10 mol %, FIG. 6A)
[4] = LNP, pro-drug concentration 10 %
[5] = LNP, pro-drug concentration 20 %
[6] = LNP, pro-drug concentration 60 %
[7] = LNP, pro-drug concentration 80 %
[8] = LNP, pro-drug concentration 99 %
[9] = LNP, pro-drug concentration 98 %
[10] = LNP, pro-drug concentration 50 %

PdI [1, 4]	Size (nm) [1, 4]	PdI [1, 5]	Size (nm) [1, 5]	Compound	Particle Diameter (nm) [1]	Polydispersity index (PDI) [1]	PdI [1, 3]	Size of LNP [1, 3]	Encapsulation Efficiency (%) ([2]; primary PC-lipid DMPC)	% Entrapment [2]	PdI [1, 6]	Size (nm) [1, 6]	PdI [1, 7]	Size (nm) [1, 7]	PdI [1, 8]	Size (nm) [1, 8]	also measured
–	–	–	–	CCCCCCCCCCCC(=O)O[C@@H](C/C=C\CCCCCCCCOC(=O)CCC(=O)OCC(=O)[C@@]1(O)[C@H](C)C[C@H]2[C@@H]3CCC4=CC(=O)C=C[C@]4(C)[C@@]3(F)[C@@H](O)C[C@@]21C)CCCCCC [INT-D046, (R,Z)-12-(dodecanoyloxy)octadec-9-en-1-yl (2-((8S,9R,10S,11S,13S,14S,16R,17R)-9-fluoro-11,17-dihydroxy-10,13,16-trimethyl-3-oxo-6,7,8,9,10,11,12,13,14,15,16,17-dodecahydro-3H-cyclopenta[a]phenanthren-17-yl)-2-oxoethyl) succinate]	69 nm	0.04	0.08	64	93%	100%	–	–	–	–	–	–	–
0.069	41 nm	0.056	41 nm	CCCCC/C=C\C/C=C\CCCCCCCC(=O)O[C@@H](C/C=C\CCCCCCCCOC(=O)CC/C(C)=C/Cc1c(O)c2c(c(C)c1OC)COC2=O)CCCCCC [INT-D063, (12R)-Linoleoyloxyoleyl (E)-6-(4-hydroxy-6-methoxy-7-methyl-3-oxo-1,3-dihydroisobenzofuran-5-yl)-4-methylhex-4-enoate]	–	–	–	–	–	–	0.149	57 nm	0.031	91 nm	0.028	119 nm	–
–	–	–	–	CCCCC/C=C\C/C=C\C/C=C\C/C=C\CCCC(=O)O[C@@H](C/C=C\CCCCCCCCOC(=O)CCC(=O)OCC(=O)[C@@]1(O)[C@H](C)C[C@H]2[C@@H]3CCC4=CC(=O)C=C[C@]4(C)[C@@]3(F)[C@@H](O)C[C@@]21C)CCCCCC [INT-D051, 2-((8S,9R,10S,11S,13S,14S,16R,17R)-9-fluoro-11,17-dihydroxy-10,13,16-trimethyl-3-oxo-6,7,8,9,10,11,12,13,14,15,16,17-dodecahydro-3H-cyclopenta[a]phenanthren-17-yl)-2-oxoethyl ((R,Z)-12-(arachidonoyloxy)octadec-9-en-1-yl) succinate]	65 nm	0.03	0.04	61	84%	100%	–	–	0.02	87 nm	0.01	93 nm	PdI [1, 9]: 0.04; Size (nm) [1, 9]: 56 nm; Encapsulation Efficiency (%) ([2]; primary PC-lipid DSPC): 100%
0.061	44 nm	0.065	39 nm	CCCCC/C=C\C/C=C\CCCCCCCC(=O)O[C@@H](C/C=C\CCCCCCCCOC(=O)c1ccccc1OC(C)=O)CCCCCC [INT-D061]	–	–	–	–	–	–	0.186	72 nm	0.089	82 nm	0.045	123 nm	–
–	–	–	–	CC/C=C\C/C=C\C/C=C\CCCCCCCC(=O)O[C@@H](C/C=C\CCCCCCCCOC(=O)CCC(=O)OCC(=O)[C@@]1(O)[C@H](C)C[C@H]2[C@@H]3CCC4=CC(=O)C=C[C@]4(C)[C@@]3(F)[C@@H](O)C[C@@]21C)CCCCCC [INT-D049, 2-((8S,9R,10S,11S,13S,14S,16R,17R)-9-fluoro-11,17-dihydroxy-10,13,16-trimethyl-3-oxo-6,7,8,9,10,11,12,13,14,15,16,17-dodecahydro-3H-cyclopenta[a]phenanthren-17-yl)-2-oxoethyl ((R,Z)-12-(linolenoyloxy)octadec-9-en-1-yl) succinate]	68 nm	0.05	0.11	65	94%	100%	0.02	61 nm	0.03	92 nm	0.03	103 nm	PdI [1, 10]: 0.05; Size (nm) [1, 10]: 44 nm; PdI [1, 9]: 0.05; Size (nm) [1, 9]: 69 nm; Encapsulation Efficiency (%) ([2]; primary PC-lipid DSPC): 100%
–	–	–	–	CCCCC/C=C\C/C=C\CCCCCCCC(=O)O[C@@H](C/C=C\CCCCCCCC(=O)OCC(=O)[C@@]1(O)[C@H](C)C[C@H]2[C@@H]3CCC4=CC(=O)C=C[C@]4(C)[C@@]3(F)[C@@H](O)C[C@@]21C)CCCCCC [INT-D089, 2-((8S,9R,10S,11S,13S,14S,16R,17R)-9-Fluoro-11,17-dihydroxy-10,13,16-trimethyl-3-oxo-6,7,8,9,10,11,12,13,14,15,16,17-dodecahydro-3H-cyclopenta[a]phenanthren-17-yl)-2-oxoethyl (R,Z)-12-linoleoyloxyoleate]	–	–	0.07	41	–	100%	–	–	–	–	–	–	–
0.085	42 nm	0.072	39 nm	CCCCCC[C@H](C/C=C\CCCCCCCCOC(=O)CC/C(C)=C/Cc1c(O)c2c(c(C)c1OC)COC2=O)OC(=O)CCCCC [INT-D062, (12R)-Hexanoyloxyoleyl (E) 6-(4-hydroxy-6-methoxy-7-methyl-3-oxo-1,3-dihydroisobenzofuran-5-yl)-4-methylhex-4-enoate]	–	–	–	–	–	–	0.212	70 nm	0.021	68 nm	0.019	93 nm	–

Compound	PdI [1, 4]	Size (nm) [1, 4]	PdI [1, 5]	Size (nm) [1, 5]	Particle Diameter (nm) [1]	Polydispersity index (PDI) [1]	PdI [1, 3]	Size of LNP [1, 3]	Encapsulation Efficiency (%) ([2]; primary PC-lipid DMPC)	% Entrapment [2]	PdI [1, 6]	Size (nm) [1, 6]	PdI [1, 7]	Size (nm) [1, 7]	PdI [1, 8]	Size (nm) [1, 8]	also measured
CCCCCC[C@H](C/C=C\CCCCCCCCOC(=O)c1ccccc1OC(C)=O)OC(=O)CCCCC [INT-D060, (R,Z)-12-Hexanoyloxyoctadec-9-en-1-yl 2-acetoxybenzoate]	0.06	46 nm	0.116	42 nm	–	–	–	–	–	–	0.216	71 nm	0.042	67 nm	0.034	98 nm	–
CCCCCCCCC(OC(=O)CCCCC)C(CCCCCCCC(=O)OCC(=O)[C@@]1(O)[C@H](C)C[C@H]2[C@@H]3CCC4=CC(=O)C=C[C@]4(C)[C@@]3(F)[C@@H](O)C[C@@]21C)OC(=O)CCCCC (stereo partly drawn) [INT-D085, 1-(2-((8S,9R,10S,11S,13,14S,16R,17R)-9-Fluoro-11,17-dihydroxy-10,13,16-trimethyl-3-oxo-6,7,8,9,10,11,12,13,14,15,16,17-dodecahydro-3H-cyclopenta[a]phenanthren-17-yl)-2-oxoethoxy)-1-oxooctadecane-9,10-diyl dihexanoate]	0.064	42 nm	0.075	39 nm	–	–	0.06	42	–	100%	0.059	56 nm	0.034	124 nm	0.006	135 nm	–
